Measurements taken from paper doi:10.1101/2023.11.02.565309v1 (biorxiv, 2023).

Target: WT GluA2(Q)i (Rattus norvegicus, UniProt P19491)
Format: cell-based
Conditions: positive allosteric modulator at 100 µM

WT GluA2(Q)i, sequence (P19491 22-883 isoform P19491-2): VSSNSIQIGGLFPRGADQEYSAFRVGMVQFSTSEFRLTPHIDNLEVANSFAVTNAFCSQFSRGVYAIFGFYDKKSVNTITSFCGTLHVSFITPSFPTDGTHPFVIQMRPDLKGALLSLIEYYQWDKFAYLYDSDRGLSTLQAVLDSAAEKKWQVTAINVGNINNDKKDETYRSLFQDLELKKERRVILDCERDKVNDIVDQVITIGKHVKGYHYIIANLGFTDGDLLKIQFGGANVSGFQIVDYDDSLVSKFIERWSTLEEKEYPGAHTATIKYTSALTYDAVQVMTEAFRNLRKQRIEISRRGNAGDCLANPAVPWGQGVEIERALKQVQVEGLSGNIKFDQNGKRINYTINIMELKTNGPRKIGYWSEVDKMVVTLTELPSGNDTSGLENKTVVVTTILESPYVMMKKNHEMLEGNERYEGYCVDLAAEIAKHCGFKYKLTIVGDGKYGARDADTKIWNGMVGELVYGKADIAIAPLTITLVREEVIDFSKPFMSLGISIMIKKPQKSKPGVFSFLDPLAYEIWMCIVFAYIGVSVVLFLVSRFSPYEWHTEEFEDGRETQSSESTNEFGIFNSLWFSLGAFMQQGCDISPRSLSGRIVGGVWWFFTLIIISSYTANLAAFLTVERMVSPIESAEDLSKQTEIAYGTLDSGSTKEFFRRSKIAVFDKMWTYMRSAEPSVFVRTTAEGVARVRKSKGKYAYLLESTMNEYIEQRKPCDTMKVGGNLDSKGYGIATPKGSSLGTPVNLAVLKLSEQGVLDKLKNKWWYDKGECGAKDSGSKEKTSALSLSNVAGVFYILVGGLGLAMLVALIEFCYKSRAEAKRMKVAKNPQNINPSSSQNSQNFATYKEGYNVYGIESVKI

fold potentiation: ~ 3 fold
SMILES: NS(=O)(=O)c1cc2c(cc1Cl)NC(C1CC3C=CC1C3)NS2(=O)=O (stereo not shown) [cyclothiazide]
